Consider one compound from ChEMBL document CHEMBL2407074, “Three dimensional structure of a bacterial α-l-fucosidase with a 5-membered iminocyclitol inhibitor” (Bioorg Med Chem, 2013).

Assay [1] can be described thus: Inhibition of bovine kidney fucosidase. Also on record: species or system Bos taurus.
The nature of assay [2]: Inhibition of Bacteroides thetaiotaomicron recombinant alpha-L-fucosidase using 2-chloro-4-nitrophenyl-alpha-L-fucopyranoside as substrate after 5 mins by Michaelis Menten equation analysis.

On to `C[C@@H]1N[C@@H](c2nc3ccccc3[nH]2)[C@H](O)[C@@H]1O`, for which the Ki in assay [1] came to 0.08 µM; in assay [2], 2 µM.
